Some test systems named below: SF-268; OVCAR-3; HCC 2998; MOLT-4; NCI-H23; BT-549; MDA-MB-435; TK-10; HCT-116; UO-31; EKVX; OVCAR-5; HCT-15; UACC-62; SNB-19; SN12C; SF-539; OVCAR-8; SK-MEL-5; K562.
Holding throughout (experiment): NCI-60 cell line screen, 48 h

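Grown in 96-well plates, cells were treated for 48 hours with each compound at five concentrations. Insufficient inhibition: endpoint recorded as highest concentration tested. GI50 = concentration required for 50% inhibition of growth.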 Active and inactive are the calls of the source. Rule as the data show it: active = GI50 up to about 1.1 µM and inactive = higher. Where only a bound is given, the exact number is not on record here.

Consider `O=C1c2cccnc2S(=O)(=O)N1c1ccc([N+](=O)[O-])cc1`, for which the GI50 in the assay with SF-268, with OVCAR-3, in the assay on HCC 2998, with MOLT-4, in the assay with NCI-H23 and in the assay on BT-549 was > 100 µM (inactive) each time. Also, the GI50 with MDA-MB-435, in the assay on TK-10, with HCT-116, in the assay with UO-31, in the assay on EKVX and in the assay on OVCAR-5 was > 100 µM (inactive) each time. Further, the GI50 in the assay with HCT-15 was above 100 µM; in the assay on UACC-62 it was > 100 µM (inactive); in the assay with SNB-19, > 100 µM (inactive); with SN12C, > 100 µM (inactive); in the assay on SF-539 it was > 100 µM (inactive); in the assay on OVCAR-8, > 100 µM (inactive). Besides, the GI50 in the assay on SK-MEL-5 was > 100 µM (inactive).

For the compound `Cc1ccc(C2(O)CS/C(=N\C34CC5CC(CC(C5)C3)C4)N2C(P(=O)(O)O)P(=O)(O)O)cc1` (stereo not given), the GI50 with SF-268 was > 100 µM (inactive); in the assay on OVCAR-3, > 100 µM (inactive); in the assay with HCC 2998 it was 68.1 µM (inactive); in the assay with MOLT-4, 37.9 µM (inactive); in the assay on NCI-H23, > 100 µM (inactive); in the assay with BT-549 it was > 100 µM (inactive). For the same compound, the GI50 with MDA-MB-435 was > 100 µM (inactive); in the assay on TK-10, > 100 µM (inactive); in the assay with HCT-116, 37.1 µM (inactive); in the assay on UO-31, > 100 µM (inactive); with EKVX, > 100 µM (inactive); in the assay on OVCAR-5, 82.8 µM (inactive). For the same compound, the GI50 is above 100 µM with HCT-15; 82.2 µM (inactive) in the assay with SNB-19; 42.7 µM (inactive) in the assay with K562; 89.3 µM (inactive) in the assay on SN12C; > 100 µM (inactive) with SF-539; 86.7 µM (inactive) with OVCAR-8.

For `Cc1nc2ccc(Cl)cc2c2c1CCN2c1ccccc1`, the GI50 was 23 µM (inactive) with SF-268; 10.3 µM (inactive) with OVCAR-3; 12.1 µM (inactive) in the assay on HCC 2998; 7.03 µM (inactive) with MOLT-4; 14.1 µM (inactive) in the assay with NCI-H23; 15.3 µM (inactive) with BT-549. In addition, the GI50 with MDA-MB-435 was 7.62 µM (inactive); in the assay with TK-10, 12.7 µM (inactive); in the assay on HCT-116, 3.61 µM (inactive); in the assay with UO-31, 8.89 µM (inactive); in the assay on EKVX it was 21.2 µM (inactive); in the assay with HCT-15 it was 17.3 µM. The GI50 in the assay with UACC-62 was 10.3 µM (inactive); in the assay with SNB-19 it was 23.5 µM (inactive); in the assay on K562, 5.05 µM (inactive); in the assay on SN12C, 0.975 µM (active); with SF-539, 13.4 µM (inactive); with OVCAR-8, 15 µM (inactive). Besides, the GI50 in the assay on SK-MEL-5 was 7.53 µM (inactive).

For the compound `CC[C@@H]1/C=C/C=C/C[C@H](C)[C@@H](O)[C@@H](C)C(=O)[C@H](C)[C@@H](O)[C@H](C)C(=O)[C@H](C)[C@@H](O)[C@H](C)/C=C/C(=O)O[C@H]2[C@@H](C)[C@@H](CC1)O[C@@]1(CC[C@@H](C)[C@@H](CC(C)O)O1)[C@@H]2C` (stereo not given in full), the GI50 with SF-268 is 6.98 µM (inactive); with OVCAR-3, 2.62 µM (inactive); with HCC 2998 it was 1.78 µM (inactive); in the assay on MOLT-4 it was 0.815 µM (active); in the assay on NCI-H23 it was 0.00361 µM (active); with BT-549, 4.32 µM (inactive). In addition, the GI50 is 3.11 µM (inactive) with MDA-MB-435; 0.528 µM (active) in the assay on TK-10; 2.58 µM (inactive) with HCT-116; < 0.0025 µM (active) with EKVX; 3.63 µM (inactive) in the assay with OVCAR-5; 4.06 µM with HCT-15. In addition, the GI50 is 3.32 µM (inactive) in the assay with UACC-62; 0.00491 µM (active) in the assay with SNB-19; 0.00504 µM (active) with K562; 1.94 µM (inactive) in the assay with SN12C; 6.46 µM (inactive) in the assay on SF-539; 0.00464 µM (active) in the assay with OVCAR-8. In the assay with SK-MEL-5, the GI50 is < 0.0025 µM (active).

`COC(=O)/C=C/N1CC1`: the GI50 in the assay on SF-268 is > 10 µM (inactive); with OVCAR-3 it was 5.81 µM (inactive); with HCC 2998, 3.62 µM (inactive); with MOLT-4, > 10 µM (inactive); in the assay with NCI-H23, > 10 µM (inactive); in the assay with BT-549 it was > 10 µM (inactive). Besides, the GI50 in the assay on MDA-MB-435 was > 10 µM (inactive); with TK-10 it was 4.09 µM (inactive); in the assay with HCT-116, > 10 µM (inactive); with EKVX, > 10 µM (inactive); in the assay on OVCAR-5, 4.76 µM (inactive); in the assay on HCT-15 it was above 10 µM. Moreover, the GI50 was > 10 µM (inactive) with UACC-62; 8.15 µM (inactive) in the assay on SNB-19; > 10 µM (inactive) in the assay on K562; > 10 µM (inactive) in the assay on SN12C; > 10 µM (inactive) in the assay on SF-539; > 10 µM (inactive) in the assay on OVCAR-8. Moreover, the GI50 in the assay with SK-MEL-5 was > 10 µM (inactive).

In the case of `Cc1ccc(C2SC(=N)Nc3c2c(C)nn3C(=O)c2ccncc2)cc1` (stereo not given), the GI50 in the assay on SF-268, in the assay on OVCAR-3, with HCC 2998, with MOLT-4, with NCI-H23 and with BT-549 was > 10 µM (inactive) each time. Besides, the GI50 with MDA-MB-435 is > 10 µM (inactive); with TK-10, > 10 µM (inactive); in the assay with HCT-116 it was > 10 µM (inactive); in the assay with OVCAR-5, > 10 µM (inactive); in the assay with HCT-15 it was above 10 µM; in the assay with UACC-62, > 10 µM (inactive). The GI50 with SNB-19, in the assay on K562, in the assay with SN12C, with SF-539, with OVCAR-8 and in the assay with SK-MEL-5 was > 10 µM (inactive) throughout.

On to `CC1=NN(c2nc(N)nc(C(C)Cl)n2)C(C)(C)C1` (stereo not given), for which the GI50 in the assay with SF-268, in the assay with HCC 2998, in the assay on MOLT-4, with NCI-H23, in the assay with BT-549 and in the assay on MDA-MB-435 was > 100 µM (inactive) throughout. The GI50 is > 100 µM (inactive) in the assay on TK-10; > 100 µM (inactive) in the assay on HCT-116; > 100 µM (inactive) in the assay with UO-31; > 100 µM (inactive) with EKVX; above 100 µM in the assay on HCT-15; > 100 µM (inactive) in the assay with UACC-62. The GI50 was > 100 µM (inactive) in the assay on SNB-19; 85.9 µM (inactive) in the assay with K562; > 100 µM (inactive) with SF-539; > 100 µM (inactive) in the assay on OVCAR-8; > 100 µM (inactive) in the assay on SK-MEL-5.

As for `COc1nc(N)c(C#N)c(C#N)c1C#N`, the GI50 with SF-268, in the assay with OVCAR-3, in the assay on HCC 2998, in the assay on MOLT-4, in the assay with NCI-H23 and in the assay with BT-549 was > 10 µM (inactive) throughout. Further, the GI50 in the assay with MDA-MB-435 is > 10 µM (inactive); in the assay on TK-10, > 10 µM (inactive); in the assay on HCT-116, > 10 µM (inactive); in the assay on OVCAR-5, > 10 µM (inactive); in the assay with HCT-15, above 10 µM; in the assay on SNB-19 it was > 10 µM (inactive). Further, the GI50 in the assay with K562, in the assay with SN12C, in the assay on SF-539, in the assay with OVCAR-8 and in the assay with SK-MEL-5 was > 10 µM (inactive) in each case.

For `CC(=O)Oc1cc(C(F)(F)F)ccc1C(=O)OC1(C)OC(=O)c2ccc(C(F)(F)F)cc2O1` (stereo not given), the GI50 with SF-268, with OVCAR-3, in the assay with HCC 2998, with MOLT-4, with NCI-H23 and in the assay with BT-549 was > 100 µM (inactive) each time. Besides, the GI50 with MDA-MB-435, in the assay with TK-10, in the assay with HCT-116, with UO-31, in the assay on EKVX and in the assay with OVCAR-5 was > 100 µM (inactive) each time. The GI50 in the assay on HCT-15 is above 100 µM; with UACC-62 it was > 100 µM (inactive); in the assay on SNB-19, > 100 µM (inactive); in the assay on K562, > 100 µM (inactive); in the assay with SN12C, 97.5 µM (inactive); in the assay with SF-539 it was > 100 µM (inactive). Besides, the GI50 with OVCAR-8 was > 100 µM (inactive).

Consider `OCC1OC(OCC(O)C(O)C(O)C(/C=N/Nc2ccccc2)=N/Nc2ccccc2)C(O)C(O)C1O` (stereo not given), for which the GI50 with SF-268 is 26 µM (inactive); in the assay on OVCAR-3, > 100 µM (inactive); in the assay with HCC 2998, > 100 µM (inactive); in the assay with MOLT-4, > 100 µM (inactive); in the assay with NCI-H23, > 100 µM (inactive); in the assay on BT-549, > 100 µM (inactive). Besides, the GI50 was > 100 µM (inactive) in the assay with MDA-MB-435; > 100 µM (inactive) in the assay on TK-10; > 100 µM (inactive) with HCT-116; 30.4 µM (inactive) in the assay on UO-31; > 100 µM (inactive) in the assay on EKVX; > 100 µM (inactive) in the assay on OVCAR-5. Further, the GI50 in the assay on HCT-15 is above 100 µM; with SNB-19 it was > 100 µM (inactive); in the assay on SN12C, > 100 µM (inactive); in the assay with SF-539 it was 79.3 µM (inactive); in the assay on OVCAR-8 it was > 100 µM (inactive); in the assay with SK-MEL-5, > 100 µM (inactive).

`Cc1nc(C(N)=S)sc1C(/C=C/c1ccc(Cl)c(Cl)c1)=N/NC(C)(C)C`: the GI50 with SF-268 is > 100 µM (inactive); with HCC 2998, > 100 µM (inactive); in the assay with MOLT-4 it was 22.3 µM (inactive); with NCI-H23, > 100 µM (inactive); with BT-549, > 100 µM (inactive); in the assay on MDA-MB-435, > 100 µM (inactive). Further, the GI50 is > 100 µM (inactive) in the assay with TK-10; > 100 µM (inactive) with HCT-116; 33.2 µM (inactive) in the assay on UO-31; > 100 µM (inactive) in the assay on EKVX; above 100 µM in the assay on HCT-15; > 100 µM (inactive) with UACC-62. The GI50 in the assay with SNB-19, in the assay on SN12C, in the assay with SF-539, in the assay with OVCAR-8 and in the assay with SK-MEL-5 was > 100 µM (inactive) throughout.

The record behind these values is ChEMBL document CHEMBL1201862, “PubChem BioAssay data set” (2004).
